{"source": "patent US9499811B2", "about": "“Ligation enhancement” (New England Biolabs, Inc., priority 2011, dated 2016)", "type_in_all_cases": "biochemical", "design_in_all_cases": "purchased NEB (New England Biolabs), Ipswich, Mass. #M0202", "key": {"T4 DNA ligase [1]": {"biological_target": "T1, T4 DNA ligase (Enterobacteria phage T4, UniProt P00970)", "T1 sequence (P00970 1-487)": "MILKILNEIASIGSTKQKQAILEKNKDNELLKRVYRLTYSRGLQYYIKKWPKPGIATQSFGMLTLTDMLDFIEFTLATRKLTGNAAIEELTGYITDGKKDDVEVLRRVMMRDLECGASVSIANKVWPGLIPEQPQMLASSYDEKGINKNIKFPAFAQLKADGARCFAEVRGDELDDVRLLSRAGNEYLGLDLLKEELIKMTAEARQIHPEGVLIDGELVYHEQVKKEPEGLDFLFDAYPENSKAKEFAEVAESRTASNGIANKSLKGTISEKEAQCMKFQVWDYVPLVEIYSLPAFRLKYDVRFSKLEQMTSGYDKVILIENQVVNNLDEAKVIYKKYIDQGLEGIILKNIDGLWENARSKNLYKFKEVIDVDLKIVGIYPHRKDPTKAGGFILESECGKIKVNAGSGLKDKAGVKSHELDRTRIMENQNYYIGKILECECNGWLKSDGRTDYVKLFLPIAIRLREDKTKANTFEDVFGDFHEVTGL", "experiment": "Cloning of a 500 bp amplicon made by Taq DNA polymerase into a T-tailed vector (ligation test system a)", "settings": "enhancer at 12%; no addition = 1-fold; single-base overhangs", "description": "All were tested side-by-side using two ligation test systems which were: (a) cloning of a 500 bp amplicon made by Taq DNA polymerase into a T-tailed vector; and (b) recircularization of an AhdI-linearized plasmid. Both ligation test systems used DNA with single-base overhangs.\n(§1) The reaction mixtures contained DNA at 50-100 ng and 1,2-PrD at different concentrations. 1 μl of regular concentration (NEB, Ipswich, Mass., #M0202; 400 units) or 1 μl of high concentration T4 DNA ligase (NEB, Ipswich, Mass., #M0202; 2000 units) was then added to a final volume of 21 μl in 1×T4 DNA Ligase Buffer (NEB, Ipwich, Mass., #B0202) or 1× Quick Ligase™ Buffer (NEB, Ipswich, Mass., #B2200).\nA standard assay uses 100 ng DNA, 1 μl of T4 DNA ligase, 21 μl 1×T4 DNA ligase buffer and varying amounts of enhancer.\n(§2) Ligation reactions were incubated for 10 min at room temperature (25° C.) unless otherwise stated, then placed on ice for 2 min. In some experiments the ligase was heat-killed by incubation at 65° C. for 20 min. The ligation reactions were analyzed by 1% agarose gel electrophoresis to identify DNA species and determine the efficiency of […].\n(§3) A volume of 2 μl from each ligation reaction was incubated with 50 μl of chemically competent (NEB, Ipswich, Mass., #C2987I) or electrocompetent (NEB, Ipswich, Mass., #C2989K) DH5 alpha E. coli cells.\n(§4) For chemically competent cell transformations, the cell-DNA mixture was incubated on ice for 30 min, heat-shocked at 42° C. for 30 sec, then returned to ice for 5 min. A volume of 950 μl SOC medium (2% vegetable peptone or Tryptone, 0.5% yeast extract, 10 mM NaCl, 2.5 mM KCl, 10 mM MgCl2, 10 mM MgSO4 and 20 mM glucose) was added to the cell-DNA mixture, followed by a one hr 37° C. outgrowth period with agitation. A volume of 25-50 μl of appropriately diluted cells in SOC was spread onto Rich Agar plates (composition per liter: 10 g soy peptone, 5 g yeast extract, 10 g NaCl, 1 g MgCl2-6H2O, 1 g dextrose, 15 grams agar) supplemented with 100 μg/ml ampicillin. Plates were inverted and incubated for 16 hrs at 37° C., followed by quantification of total colony numbers."}, "T4 DNA ligase [2]": {"biological_target": "T1, T4 DNA ligase", "experiment": "Cloning of inserts with single-base 3'A overhangs into Qiagen cloning vector, ligation and subsequent transformation", "settings": "6% 1,2-PrD", "description": "This test used a commercially available cloning vector from Qiagen, Valencia, Calif. (#231124) specifically designed to clone DNA fragments with single-base 3′A overhangs.\nas §1, §2, §3, §4\nFor electrocompetent cell transformation protocols, the cell-DNA mixture was subjected to electroporation, immediately followed by the addition of 950 μl of pre-warmed 37° C. SOC medium, followed by a one hour 37° C. outgrowth period with agitation. Dilution, plating, incubation and colony quantification were performed as described in Example 1A above."}, "T4 DNA ligase [3]": {"biological_target": "T1, T4 DNA ligase", "experiment": "Recircularization of AhdI-linearized pUC19 and transformation of NEB Turbo cells (FIGS. 1A-C)", "settings": "0, 4%, 6% 1,2-PrD, 400 U T4 DNA ligase, 20 min 16 C", "excerpt": "FIGS. 1A-C show the results of recircularization through ligation of double-stranded linearized plasmid DNA in the presence of increasing amounts of 1,2-PrD. The ligated DNA is subsequently transformed into competent E. coli cells, followed by plating on agar ampicillin selection plates. The extent of successful transformation is illustrated by the numbers of colonies on the plate.\nLinearization of the pUC19 plasmid was achieved using AhdI to generate single-base overhangs as described in FIG. 3A. Ligation of the cleaved DNA was performed in a 20 μl ligation reaction containing 100 ng of DNA in the presence and absence of 1,2-PrD and 400 U of T4 DNA ligase was incubated for 20 min at 16° C., then heated to 65° C. for 45 min to inactivate the ligase. Transformation of cells with the ligated DNA was performed using chemically competent NEB Turbo™ cells (NEB, Ipswich, Mass., #C2984H) as described in Example 1 using 2 μl of the ligation mix (containing 10 ng DNA) with an outgrowth period of 20 min."}, "[4]": {"settings": "insert 68mer cassette featuring No 5' PO4, 3' A overhang"}, "[5]": {"settings": "insert 513 pb human genomic amplicon using Taq DNA polymerase"}}, "note": "“Also recorded” adds a separate entry of the source."}
{"compound": "CC(O)CO", "note": "(stereo not shown) [1,2-PrD, 1,2-propanediol]", "values": [{"measurement": "Cloning Enhancement", "setting": "T4 DNA ligase [1]", "value": "14-fold"}, {"measurement": "Cloning Enhancement (chemical transformation)", "setting": "T4 DNA ligase [2]; [4]", "value": "14-fold"}, {"measurement": "Cloning Enhancement (electroporation)", "setting": "T4 DNA ligase [2]; [4]", "value": "2-fold"}, {"measurement": "Cloning Enhancement (chemical transformation)", "setting": "T4 DNA ligase [2]; [5]", "value": "At least 72-fold"}, {"measurement": "Cloning Enhancement (electroporation)", "setting": "T4 DNA ligase [2]; [5]", "value": "11-fold"}, {"measurement": "Colonies (chemical transformation)", "setting": "T4 DNA ligase [2]; insert 513 pb human genomic amplicon, 0 colonies without enhancer", "value": 72, "unit": "colonies)"}, {"measurement": "Transformation levels (number of colonies)", "setting": "T4 DNA ligase [3]", "value": "the greater the number of transformants; also recorded: increased transformation levels"}]}
